Experimental data published in ChEMBL document CHEMBL1201862, “PubChem BioAssay data set” (2004).
Blank lines part the entries; values can stand above or below the compound they belong to. The source made the active and inactive calls.

Assays:
[1] = target: T1, Apoptotic protease-activating factor 1 (Homo sapiens, UniProt O14727); experiment: SAR analysis of small molecule inhibitors of Apaf-1 in a Fluorescent assay.; assay type: functional; conditions: read-out: IC50_Mean
T1 sequence (O14727 whole entry): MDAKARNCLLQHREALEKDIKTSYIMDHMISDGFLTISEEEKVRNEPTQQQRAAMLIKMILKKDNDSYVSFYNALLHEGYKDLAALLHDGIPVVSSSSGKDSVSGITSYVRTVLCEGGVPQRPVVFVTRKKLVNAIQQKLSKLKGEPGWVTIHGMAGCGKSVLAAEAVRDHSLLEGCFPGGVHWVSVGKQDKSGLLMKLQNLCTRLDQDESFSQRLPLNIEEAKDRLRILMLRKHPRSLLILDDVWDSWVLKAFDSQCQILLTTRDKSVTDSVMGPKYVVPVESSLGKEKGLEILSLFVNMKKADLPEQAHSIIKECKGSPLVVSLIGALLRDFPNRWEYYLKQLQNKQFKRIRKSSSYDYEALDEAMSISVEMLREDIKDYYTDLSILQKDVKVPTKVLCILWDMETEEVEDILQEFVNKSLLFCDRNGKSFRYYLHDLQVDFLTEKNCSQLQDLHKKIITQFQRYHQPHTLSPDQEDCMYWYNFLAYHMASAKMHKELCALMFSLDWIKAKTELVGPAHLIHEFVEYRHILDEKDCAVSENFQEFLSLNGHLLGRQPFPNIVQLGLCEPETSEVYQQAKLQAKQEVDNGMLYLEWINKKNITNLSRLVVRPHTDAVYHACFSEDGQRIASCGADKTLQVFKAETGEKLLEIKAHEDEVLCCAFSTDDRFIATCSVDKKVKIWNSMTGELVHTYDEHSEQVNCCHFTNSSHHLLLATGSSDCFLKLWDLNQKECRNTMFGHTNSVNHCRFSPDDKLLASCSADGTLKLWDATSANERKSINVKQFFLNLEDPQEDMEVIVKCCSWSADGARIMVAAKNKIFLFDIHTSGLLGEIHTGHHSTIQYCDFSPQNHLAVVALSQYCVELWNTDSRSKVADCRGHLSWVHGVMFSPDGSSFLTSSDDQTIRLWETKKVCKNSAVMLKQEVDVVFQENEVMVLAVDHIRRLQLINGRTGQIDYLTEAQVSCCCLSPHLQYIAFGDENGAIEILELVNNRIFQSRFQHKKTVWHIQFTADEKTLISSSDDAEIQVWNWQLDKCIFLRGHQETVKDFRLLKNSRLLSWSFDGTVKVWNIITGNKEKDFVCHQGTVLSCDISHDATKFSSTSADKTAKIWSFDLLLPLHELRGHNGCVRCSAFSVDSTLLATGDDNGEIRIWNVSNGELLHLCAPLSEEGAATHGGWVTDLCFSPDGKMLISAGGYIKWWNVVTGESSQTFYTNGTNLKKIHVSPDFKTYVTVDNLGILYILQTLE

LIM domain kinase 1 = LIM domain kinase 1 (Homo sapiens, UniProt P53667); experiment: Navigating the Kinome. Panel member name: LIMK1; assay type: functional
[2] = target: Cyclin-dependent kinase 5 (Homo sapiens, UniProt Q00535); assay type: functional;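 further: CDK5 measured as one member of a kinase profiling panel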
[3] = target: Serine/threonine-protein kinase BRSK1 (Homo sapiens, UniProt Q8TDC3); assay type: functional;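 further: measured within a kinome-wide kinase panel, with the target listed as KIAA1811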
Serine/threonine-protein kinase BRSK1, sequence (Q8TDC3 whole entry): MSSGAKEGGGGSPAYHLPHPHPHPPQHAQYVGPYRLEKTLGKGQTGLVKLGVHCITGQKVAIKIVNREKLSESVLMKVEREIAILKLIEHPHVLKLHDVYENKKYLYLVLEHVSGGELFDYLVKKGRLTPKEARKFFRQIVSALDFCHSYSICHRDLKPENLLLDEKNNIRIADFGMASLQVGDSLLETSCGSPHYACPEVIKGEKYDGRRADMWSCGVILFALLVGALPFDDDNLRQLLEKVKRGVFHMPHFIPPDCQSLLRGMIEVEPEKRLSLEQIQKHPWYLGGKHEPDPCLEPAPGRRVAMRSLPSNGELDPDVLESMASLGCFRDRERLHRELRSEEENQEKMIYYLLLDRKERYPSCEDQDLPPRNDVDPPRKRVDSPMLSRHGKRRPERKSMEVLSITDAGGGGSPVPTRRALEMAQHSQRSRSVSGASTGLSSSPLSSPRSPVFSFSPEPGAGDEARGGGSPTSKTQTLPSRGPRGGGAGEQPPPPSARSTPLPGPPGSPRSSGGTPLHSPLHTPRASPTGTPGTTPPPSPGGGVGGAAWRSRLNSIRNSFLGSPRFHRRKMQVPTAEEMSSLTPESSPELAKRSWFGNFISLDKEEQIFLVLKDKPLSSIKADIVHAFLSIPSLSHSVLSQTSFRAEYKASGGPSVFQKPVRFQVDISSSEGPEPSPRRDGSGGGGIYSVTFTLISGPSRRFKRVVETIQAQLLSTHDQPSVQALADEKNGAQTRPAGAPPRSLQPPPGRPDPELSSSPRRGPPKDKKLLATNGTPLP

[4] = target: Rho-associated protein kinase 1 (Homo sapiens, UniProt Q13464); assay type: functional;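 further: measured within a broad kinome-wide panel profiling many kinases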
[5] = target: Serine/threonine-protein kinase pim-1 (Homo sapiens, UniProt P11309); assay type: functional
[6] = target: Serine/threonine-protein kinase PAK 1 (Homo sapiens, UniProt Q13153); assay type: functional
[7] = target: Serine/threonine-protein kinase MRCK alpha (Homo sapiens, UniProt Q5VT25); assay type: functional
[8] = target: Serine/threonine-protein kinase DCLK1 (Homo sapiens, UniProt O15075); assay type: functional;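 further: affinity for DCLK1 (listed as DCAMKL1) measured as one member of a kinome-wide kinase profiling panel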
Serine/threonine-protein kinase DCLK1, sequence (O15075 whole entry): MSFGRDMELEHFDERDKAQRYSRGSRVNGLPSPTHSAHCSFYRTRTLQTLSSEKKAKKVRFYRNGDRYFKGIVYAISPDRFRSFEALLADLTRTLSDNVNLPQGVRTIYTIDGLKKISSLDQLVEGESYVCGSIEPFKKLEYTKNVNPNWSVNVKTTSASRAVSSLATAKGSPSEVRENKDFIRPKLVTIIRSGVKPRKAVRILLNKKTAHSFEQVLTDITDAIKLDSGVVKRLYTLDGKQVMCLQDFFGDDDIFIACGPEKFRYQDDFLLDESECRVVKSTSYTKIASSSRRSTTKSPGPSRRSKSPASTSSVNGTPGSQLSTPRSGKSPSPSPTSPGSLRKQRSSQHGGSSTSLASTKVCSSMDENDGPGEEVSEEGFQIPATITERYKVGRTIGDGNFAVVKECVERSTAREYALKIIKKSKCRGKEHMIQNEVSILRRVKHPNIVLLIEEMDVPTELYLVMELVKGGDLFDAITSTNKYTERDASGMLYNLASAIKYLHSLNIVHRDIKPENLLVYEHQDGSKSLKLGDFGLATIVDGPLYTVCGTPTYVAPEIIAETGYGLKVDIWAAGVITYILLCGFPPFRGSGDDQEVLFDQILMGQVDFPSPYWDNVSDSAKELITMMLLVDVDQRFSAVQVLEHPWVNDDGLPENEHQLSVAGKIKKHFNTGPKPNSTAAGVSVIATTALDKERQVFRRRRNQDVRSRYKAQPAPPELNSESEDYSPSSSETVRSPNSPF

[9] = target: STE20-like serine/threonine-protein kinase (Homo sapiens, UniProt Q9H2G2); assay type: functional
STE20-like serine/threonine-protein kinase, sequence (Q9H2G2 whole entry): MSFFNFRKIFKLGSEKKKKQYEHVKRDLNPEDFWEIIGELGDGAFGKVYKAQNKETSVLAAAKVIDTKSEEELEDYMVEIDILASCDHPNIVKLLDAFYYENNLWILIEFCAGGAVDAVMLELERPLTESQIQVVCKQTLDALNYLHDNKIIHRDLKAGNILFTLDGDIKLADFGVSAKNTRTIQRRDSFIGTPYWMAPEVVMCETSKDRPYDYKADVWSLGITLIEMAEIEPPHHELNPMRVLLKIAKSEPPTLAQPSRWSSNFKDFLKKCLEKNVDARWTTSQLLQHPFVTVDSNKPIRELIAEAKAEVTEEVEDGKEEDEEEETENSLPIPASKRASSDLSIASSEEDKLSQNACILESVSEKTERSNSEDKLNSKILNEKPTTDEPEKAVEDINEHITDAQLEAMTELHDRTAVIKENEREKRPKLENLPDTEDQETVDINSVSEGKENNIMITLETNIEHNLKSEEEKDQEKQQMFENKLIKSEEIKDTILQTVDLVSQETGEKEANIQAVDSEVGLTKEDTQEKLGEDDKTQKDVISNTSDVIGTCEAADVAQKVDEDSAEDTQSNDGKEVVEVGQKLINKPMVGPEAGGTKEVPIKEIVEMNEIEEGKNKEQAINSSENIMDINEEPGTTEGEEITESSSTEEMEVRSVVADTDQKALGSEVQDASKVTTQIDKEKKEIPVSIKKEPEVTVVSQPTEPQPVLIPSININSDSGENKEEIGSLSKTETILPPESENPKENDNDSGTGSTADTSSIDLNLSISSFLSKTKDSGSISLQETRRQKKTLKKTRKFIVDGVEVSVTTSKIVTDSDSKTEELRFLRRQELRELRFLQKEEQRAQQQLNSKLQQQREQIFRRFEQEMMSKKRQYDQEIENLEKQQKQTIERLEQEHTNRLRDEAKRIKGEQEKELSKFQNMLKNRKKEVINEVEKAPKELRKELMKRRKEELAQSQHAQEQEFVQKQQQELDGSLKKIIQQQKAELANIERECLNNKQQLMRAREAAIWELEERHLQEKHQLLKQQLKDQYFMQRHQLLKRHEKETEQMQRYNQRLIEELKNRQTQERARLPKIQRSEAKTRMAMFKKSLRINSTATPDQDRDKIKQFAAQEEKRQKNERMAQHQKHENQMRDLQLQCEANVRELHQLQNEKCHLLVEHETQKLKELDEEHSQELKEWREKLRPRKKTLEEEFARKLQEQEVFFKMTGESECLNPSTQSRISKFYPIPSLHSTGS

[10] = target: Mitogen-activated protein kinase kinase kinase kinase 5 (Homo sapiens, UniProt Q9Y4K4); assay type: functional;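 further: measured as one member of a kinome-spanning kinase panel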
[11] = target: MAP kinase-interacting serine/threonine-protein kinase 2 (Homo sapiens, UniProt Q9HBH9); assay type: functional
[12] = target: MAP kinase-activated protein kinase 3 (Homo sapiens, UniProt Q16644); assay type: functional;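 further: value comes from a kinome-wide profiling panel in which MAPKAPK3 is one of the panel members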
MAP kinase-activated protein kinase 3, sequence (Q16644 whole entry): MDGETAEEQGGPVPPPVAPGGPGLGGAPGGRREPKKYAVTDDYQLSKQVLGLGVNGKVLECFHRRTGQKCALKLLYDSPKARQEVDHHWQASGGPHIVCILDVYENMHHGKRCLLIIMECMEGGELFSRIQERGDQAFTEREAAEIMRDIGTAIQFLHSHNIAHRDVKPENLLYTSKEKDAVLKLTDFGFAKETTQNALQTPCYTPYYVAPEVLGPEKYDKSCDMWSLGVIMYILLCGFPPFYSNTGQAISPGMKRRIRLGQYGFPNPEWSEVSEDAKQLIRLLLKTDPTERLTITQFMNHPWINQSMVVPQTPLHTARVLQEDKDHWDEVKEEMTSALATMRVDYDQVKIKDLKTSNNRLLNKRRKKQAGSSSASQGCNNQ

[13] = target: Serine/threonine-protein kinase D3 (Homo sapiens, UniProt O94806); assay type: functional;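 further: determined within a kinase panel screen, with PRKCN as the panel member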
[14] = target: RAC-gamma serine/threonine-protein kinase (Homo sapiens, UniProt Q9Y243); assay type: functional
[15] = target: Dual specificity tyrosine-phosphorylation-regulated kinase 1A (Homo sapiens, UniProt Q13627); assay type: functional;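 further: measured against DYRK1A as one member of a broad kinome profiling panel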
[16] = target: Serine/threonine-protein kinase pim-3 (Homo sapiens, UniProt Q86V86); assay type: functional;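 further: value obtained as one member of a broad kinase panel profiling effort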
[17] = target: Interleukin-1 receptor-associated kinase 4 (Homo sapiens, UniProt Q9NWZ3); assay type: functional
[18] = target: Serine/threonine-protein kinase TAO1 (Homo sapiens, UniProt Q7L7X3); assay type: functional
[19] = target: Mitogen-activated protein kinase kinase kinase kinase 4 (Homo sapiens, UniProt O95819); assay type: functional
[20] = target: Serine/threonine-protein kinase Nek2 (Homo sapiens, UniProt P51955); assay type: functional
[21] = target: G protein-coupled receptor kinase 5 (Homo sapiens, UniProt P34947); experiment: Navigating the Kinome. Panel member name: GPRK5; assay type: functional
G protein-coupled receptor kinase 5, sequence (P34947 whole entry): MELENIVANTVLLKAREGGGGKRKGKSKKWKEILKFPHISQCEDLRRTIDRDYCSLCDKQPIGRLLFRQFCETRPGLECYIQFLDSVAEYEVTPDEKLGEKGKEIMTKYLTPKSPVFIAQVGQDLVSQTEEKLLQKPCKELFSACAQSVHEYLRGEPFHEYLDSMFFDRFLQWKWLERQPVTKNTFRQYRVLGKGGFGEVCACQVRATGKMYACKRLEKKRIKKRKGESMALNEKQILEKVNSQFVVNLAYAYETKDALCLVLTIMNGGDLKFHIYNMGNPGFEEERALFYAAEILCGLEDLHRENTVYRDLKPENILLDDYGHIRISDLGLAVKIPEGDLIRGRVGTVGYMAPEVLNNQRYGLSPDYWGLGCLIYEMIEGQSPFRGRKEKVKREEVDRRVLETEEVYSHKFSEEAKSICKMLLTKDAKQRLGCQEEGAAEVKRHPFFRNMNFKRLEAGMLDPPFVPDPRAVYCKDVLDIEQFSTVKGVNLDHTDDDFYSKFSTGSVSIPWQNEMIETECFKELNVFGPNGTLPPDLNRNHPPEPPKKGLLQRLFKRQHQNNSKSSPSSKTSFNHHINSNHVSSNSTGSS

[22] = rise of 2N DNA cells, HeLa – IC50, dose response (AID 1117349); assay type: functional, cell-based
[23] = target: Dual specificity tyrosine-phosphorylation-regulated kinase 3 (Homo sapiens, UniProt O43781); assay type: functional;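 further: measured as one member of a broad kinase panel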
[24] = target: Eukaryotic elongation factor 2 kinase (Homo sapiens, UniProt O00418); assay type: functional
[25] = target: Lymphokine-activated killer T-cell-originated protein kinase (Homo sapiens, UniProt Q96KB5); assay type: functional;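 further: value comes from a kinase panel screen in which TOPK was one of the panel members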
[26] = target: Testis-specific serine/threonine-protein kinase 2 (Homo sapiens, UniProt Q96PF2); assay type: functional;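 further: part of the Navigating the Kinome panel, target entry STK22B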
Testis-specific serine/threonine-protein kinase 2, sequence (Q96PF2 whole entry): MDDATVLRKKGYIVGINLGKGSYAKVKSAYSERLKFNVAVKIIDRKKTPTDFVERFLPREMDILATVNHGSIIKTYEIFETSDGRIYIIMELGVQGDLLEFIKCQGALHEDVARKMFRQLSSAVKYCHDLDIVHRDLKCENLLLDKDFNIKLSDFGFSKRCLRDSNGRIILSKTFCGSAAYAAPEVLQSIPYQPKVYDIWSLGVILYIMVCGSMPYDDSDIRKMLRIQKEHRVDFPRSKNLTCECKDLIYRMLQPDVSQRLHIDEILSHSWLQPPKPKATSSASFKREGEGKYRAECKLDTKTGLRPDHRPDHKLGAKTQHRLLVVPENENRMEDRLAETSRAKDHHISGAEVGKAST

[27] = target: Dual specificity tyrosine-phosphorylation-regulated kinase 4 (Homo sapiens, UniProt Q9NR20); assay type: functional
[28] = rise of 4N DNA cells, HeLa – IC50, dose response (AID 1117351); assay type: functional, cell-based
[29] = target: Protein kinase C gamma type (Homo sapiens, UniProt P05129); assay type: functional
[30] = target: Cell division cycle 7-related protein kinase (Homo sapiens, UniProt O00311); assay type: functional;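 further: value obtained from a kinome-wide kinase panel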
Cell division cycle 7-related protein kinase, sequence (O00311 whole entry): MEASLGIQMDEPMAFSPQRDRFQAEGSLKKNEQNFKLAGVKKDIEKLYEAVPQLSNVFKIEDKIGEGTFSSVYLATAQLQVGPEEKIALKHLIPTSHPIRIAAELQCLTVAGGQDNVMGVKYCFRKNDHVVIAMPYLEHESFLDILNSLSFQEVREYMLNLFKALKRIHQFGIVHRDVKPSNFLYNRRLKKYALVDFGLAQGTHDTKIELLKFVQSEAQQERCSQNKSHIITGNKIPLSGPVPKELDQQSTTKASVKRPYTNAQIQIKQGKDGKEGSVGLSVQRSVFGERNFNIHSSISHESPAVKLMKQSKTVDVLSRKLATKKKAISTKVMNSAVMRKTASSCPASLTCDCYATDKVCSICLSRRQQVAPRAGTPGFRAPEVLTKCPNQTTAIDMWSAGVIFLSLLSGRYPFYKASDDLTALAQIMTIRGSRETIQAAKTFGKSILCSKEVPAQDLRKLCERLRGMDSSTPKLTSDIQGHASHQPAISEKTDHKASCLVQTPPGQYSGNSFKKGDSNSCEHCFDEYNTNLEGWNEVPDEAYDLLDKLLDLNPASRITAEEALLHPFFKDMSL

IC50 [1]: > 100 µM (inactive)
SMILES: Cc1ccc(-c2nc3cc(NC(=O)c4cccs4)ccc3[nH]2)o1

Ki (LIM domain kinase 1): > 10 µM (inactive)
Ki [2]: > 10 µM (inactive)
Ki [3]: > 10 µM (inactive)
Ki [4]: > 10 µM (inactive)
Ki [5]: 1.58 µM (active)
Ki [6]: > 10 µM (inactive)
Ki [7]: > 10 µM (inactive)
Ki [8]: > 10 µM (inactive)
Ki [9]: > 10 µM (inactive)
Ki [10]: 6.31 µM (active)
Ki [11]: 6.31 µM (active)
Ki [12]: > 10 µM (inactive)
Ki [13]: > 10 µM (inactive)
Ki [14]: > 10 µM (inactive)
Ki [15]: 6.31 µM (active)
Ki [16]: 1 µM (active)
Ki [17]: > 10 µM (inactive)
Ki [18]: > 10 µM (inactive)
Ki [19]: 3.98 µM (active)
Ki [20]: > 10 µM (inactive)
SMILES: COc1ccc(C=C2SC(=Nc3ccccc3)NC2=O)cc1OC

SMILES: Cc1nc(Nc2ncc(C(=O)Nc3c(C)cccc3Cl)s2)cc(N2CCN(CCO)CC2)n1 [DASATINIB]
Ki [21]: > 3.98 µM (inactive)
IC50 [22]: > 10 µM (inactive)
Ki [23]: 1.26 µM (active)
Ki [24]: > 3.98 µM (inactive)
Ki [12]: > 10 µM (inactive)
Ki [25]: > 10 µM (inactive)
Ki [26]: > 1.58 µM (inactive)
Ki [27]: > 7.94 µM (inactive)
IC50 [28]: > 10 µM (inactive)
Ki [29]: > 7.94 µM (inactive)
Ki [30]: > 1.26 µM (inactive)
